In patent US7671038B1, “Method of therapeautic treatments including human immunodeficiency virus (HIV) disease and other conditions in a human host by administering adenine nucleotides” (priority 1993, dated 2010):
“Also recorded” adds a separate entry of the source.

How the values were obtained:
[1] = system: TNF-α production; settings: cited from earlier work; for TNF-α biosynthesis inhibition: conclusion of Parmely et al.
[2] = system: endotoxin lethality; settings: mice; cited from earlier work
[3] = system: T-cells; settings: HIV seropositive individuals (without AIDS); cited from earlier work
[4] = Phase I continuous intravenous ATP infusions in advanced cancer patients: total blood (red blood cell) ATP levels and adverse effects; format: in vivo, human; settings: after 48 hours of infusion
Text: In advanced cancer patients with cachexia and malnutrition, the basal blood ATP levels were lower than normal but could be elevated to well above a normal level after ATP infusions.

[5] = cited from earlier work
[6] = system: tumor-bearing murine models; settings: cited from earlier work
[7] = activated mouse peritoneal macrophages

## Nc1ncnc2c1ncn2[C@@H]1O[C@H](CO)[C@@H](O)[C@H]1O [adenosine]
[1]; [7]
  RNA levels for TNF-α: no effect
  TNF-α production: inhibited
[1]
  TNF-α biosynthesis inhibition: potent inhibitors
[2]
  protection against endotoxin lethality: failed to protect

## C[C@H]1O[C@@H](n2cnc3c(N)ncnc32)C[C@@H]1O [ddAdo, 2′,5′-dideoxyadenosine]
[3]
  cyclic AMP levels: reduce
  proliferative capacity of T-cells to recall antigens and T-cell cytotoxicity: increase

## Nc1ncnc2c1ncn2[C@H]1CC[C@@H](O)C1 [MDL201112, reference compound]
[1]
  TNF-α biosynthesis inhibition: potent inhibitors

## Nc1ncnc2c1ncn2[C@@H]1O[C@H](COP(=O)(O)OP(=O)(O)OP(=O)(O)O)[C@@H](O)[C@H]1O [ATP, adenosine 5′triphosphate]
[4]; most patients
  change of total blood levels of ATP (red blood cell ATP pools): doubling
[4]; basal levels 0.9-1 mM
  total blood ATP levels: 1.6 to 2 mM
[5]; intravenous infusion 50 μg/kg min, after 24 hours, advanced cancer patients
  change of blood (red blood cell) ATP levels: doubling
[5]; return of total blood ATP to basal levels
  decline of elevated blood ATP levels after termination of the ATP infusions: declined over a period of several days; also recorded: declined within several days
[6]; cachectic tumor model, murine hosts
  host weight loss: markedly inhibit
[6]; elevated ATP levels, tumor-bearing murine models
  tumor growth: inhibit
